Results reported in patent publication US9096592B2, “Bicyclic aza heterocycles, and use thereof” (BAYER INTELLECTUAL PROPERTY GMBH, priority 2010, dated 2015).
Where a name gives a salt, the structure may show the parent alone.

System: aorta rings
Assay: Vasorelaxant action in vitro (phenylephrine-contracted rabbit aorta rings, organ bath)
Conditions: Oryctolagus cuniculus; concentration needed to reduce the phenylephrine contraction of rabbit aorta rings by 50%
Protocol: B-1. Vasorelaxant Action In Vitro
Rabbits are stunned by a blow to the neck and exsanguinated. The aorta is removed, freed from adhering tissue and divided into rings of width 1.5 mm, which are placed individually under prestress into 5 ml organ baths with carbogen-sparged Krebs-Henseleit solution at 37° C. having the following composition (each mM): sodium chloride 119; potassium chloride: 4.8; calcium chloride dihydrate: 1; magnesium sulfate heptahydrate: 1.4; potassium dihydrogenphosphate: 1.2; sodium hydrogencarbonate: 25; glucose: 10. The contractile force is determined with Statham UC2 cells, amplified and digitalized using A/D transducers (DAS-1802 HC, Keithley Instruments Munich), and recorded in parallel on linear recorders. To obtain a contraction, phenylephrine is added to the bath cumulatively in increasing concentration. After several control cycles, the substance to be studied is added in increasing dosage each time in every further run, and the magnitude of the contraction is compared with the magnitude of the contraction attained in the last preceding run. This is used to calculate the concentration needed to reduce the magnitude of the control value by 50% (IC50 value). The standard administration volume is 5 μl; the DMSO content in the bath solution corresponds to 0.1%.

| Compound | IC50 |
| --- | --- |
| Nc1nc(-c2nn(Cc3ccccc3F)c3ncccc23)nc2cccc(Cl)c12 [Example 7, 5-Chloro-2-[1-(2-fluorobenzyl)-1H-pyrazolo[3,4-b]pyridin-3-yl]quinazolin-4-amine] | 1090 nM |
| COC(=O)N1CCNc2nc(-c3nn(Cc4ccccc4F)c4ncccc34)ccc21 [Example 63, Methyl 6-[1-(2-fluorobenzyl)-1H-pyrazolo[3,4-b]pyridin-3-yl]-3,4-dihydropyrido[2,3-b]pyrazine-1(2H)-carboxylate] | 139 nM |
| O=c1[nH]c2ccc(-c3nn(Cc4ccccc4F)c4ncccc34)nc2[nH]1 [Example 71, 5-[1-(2-Fluorobenzyl)-1H-pyrazolo[3,4-b]pyridin-3-yl]-1,3-dihydro-2H-imidazo[4,5-b]pyridin-2-one] | 86 nM |
| Fc1ccccc1Cn1nc(-c2ncc3ccccc3n2)c2cccnc21 [Example 74, 2-[1-(2-Fluorobenzyl)-1H-pyrazolo[3,4-b]pyridin-3-yl]quinazoline] | 713 nM |
| CCOC(=O)N1CCNc2nc(-c3nn(Cc4ccccc4F)c4ncccc34)nc(N)c21 [Example 76, Ethyl 4-amino-2-[1-(2-fluorobenzyl)-1H-pyrazolo[3,4-b]pyridin-3-yl]-7,8-dihydropteridine-5(6H)-carboxylate formate] | 23 nM |
| Nc1nc(-c2nn(Cc3ccccc3F)c3ncccc23)nc2ccncc12 [Example 84, 2-[1-(2-Fluorobenzyl)-1H-pyrazolo[3,4-b]pyridin-3-yl]pyrido[4,3-d]pyrimidin-4-amine] | 155 nM |
| Cn1c(=O)[nH]c2nc(-n3nc(Cc4ccccc4F)c4ncccc43)nc(N)c21 [Example 89, 6-Amino-2-[3-(2-fluorobenzyl)-1H-pyrazolo[4,3-b]pyridin-1-yl]-7-methyl-7,9-dihydro-8H-purin-8-one] | 146 nM |
| Nc1nc(-n2nc(Cc3ccccc3F)c3ncccc32)nc2[nH]c(=O)[nH]c12 [Example 90, 6-Amino-2-[3-(2-fluorobenzyl)-1H-pyrazolo[4,3-b]pyridin-1-yl]-7,9-dihydro-8H-purin-8-one] | 5980 nM |
| Nc1nc(-n2nc(Cc3ccccc3F)c3ncccc32)nc2[nH]c(=O)n(Cc3ccc(F)cc3)c12 [Example 91, 6-Amino-7-(4-fluorobenzyl)-2-[3-(2-fluorobenzyl)-1H-pyrazolo[4,3-b]pyridin-1-yl]-7,9-dihydro-8H-purin-8-one] | 475 nM |
| Nc1nc(-n2nc(Cc3ccccc3F)c3ncccc32)nc2[nH]c(=O)n(CCO)c12 [Example 92, 6-Amino-2-[3-(2-fluorobenzyl)-1H-pyrazolo[4,3-b]pyridin-1-yl]-7-(2-hydroxyethyl)-7,9-dihydro-8H-purin-8-one] | 535 nM |
| Cn1c(=O)[nH]c2nc(-c3nn(Cc4ccccc4F)c4ncc(F)cc34)ncc21 [Example 95, 2-[5-Fluoro-1-(2-fluorobenzyl)-1H-pyrazolo[3,4-b]pyridin-3-yl]-7-methyl-7,9-dihydro-8H-purin-8-one] | 44 nM |
| Fc1cnc2c(c1)c(-c1ncc3cc[nH]c3n1)nn2Cc1ccccc1F [Example 97, 5-Fluoro-1-(2-fluorobenzyl)-3-(7H-pyrrolo[2,3-d]pyrimidin-2-yl)-1H-pyrazolo[3,4-b]pyridine] | 464 nM |
| COC(=O)N1CC(=O)Nc2nc(-c3nn(Cc4ccccc4F)c4ncccc34)nc(N)c21 [Example 98, Methyl 4-amino-2-[1-(2-fluorobenzyl)-1H-pyrazolo[3,4-b]pyridin-3-yl]-7-oxo-7,8-dihydropteridine-5(6H)-carboxylate] | 71 nM |
| CNc1nc(-c2nn(Cc3ccccc3F)c3ncccc23)nc2[nH]c(=O)n(CC(F)F)c12 [Example 103, 7-(2,2-Difluoroethyl)-2-[1-(2-fluorobenzyl)-1H-pyrazolo[3,4-b]pyridin-3-yl]-6-(methylamino)-7,9-dihydro-8H-purin-8-one] | 658 nM |
| O=c1[nH]c2nc(-c3nn(Cc4ccccc4F)c4ncccc34)ncc2n1C1CCN(C2CC2)CC1 [Example 104, 7-(1-Cyclopropylpiperidin-4-yl)-2-[1-(2-fluorobenzyl)-1H-pyrazolo[3,4-b]pyridin-3-yl]-7,9-dihydro-8H-purin-8-one] | 40 nM |

Further lines, results first:

| IC50 | Compound |
| --- | --- |
| 49 nM | CC(C)(O)Cn1c(=O)[nH]c2nc(-c3nn(Cc4ccccc4F)c4ncccc34)nc(N)c21 [Example 2, 6-Amino-2-[1-(2-fluorobenzyl)-1H-pyrazolo[3,4-b]pyridin-3-yl]-7-(2-hydroxy-2-methylpropyl)-7,9-dihydro-8H-purin-8-one] |
| 284 nM | Nc1nc(-c2nn(Cc3ccccc3F)c3ncccc23)nc2sccc12 [Example 12, 2-[1-(2-Fluorobenzyl)-1H-pyrazolo[3,4-b]pyridin-3-yl]thieno[2,3-d]pyrimidin-4-amine] |
| 246 nM | Cc1nsc2nc(-c3nn(Cc4ccccc4F)c4ncccc34)nc(N)c12 [Example 13, 6-[1-(2-Fluorobenzyl)-1H-pyrazolo[3,4-b]pyridin-3-yl]-3-methyl[1,2]thiazolo[5,4-d]pyrimidin-4-amine] |
| 730 nM | Nc1nc(-c2nn(Cc3ccccc3F)c3ncccc23)nc2onc(C(F)(F)F)c12 [Example 15, 6-[1-(2-Fluorobenzyl)-1H-pyrazolo[3,4-b]pyridin-3-yl]-3-(trifluoromethyl)[1,2]oxazolo[5,4-d]pyrimidin-4-amine] |
| 233 nM | Nc1nc(-c2nn(Cc3ccccc3F)c3ncccc23)nc2[nH]nc(OCCO)c12 [Example 21, 2-({4-Amino-6-[1-(2-fluorobenzyl)-1H-pyrazolo[3,4-b]pyridin-3-yl]-1H-pyrazolo[3,4-d]pyrimidin-3-yl}oxy)ethanol] |
| 197 nM | CC1=Nc2c(N)nc(-c3nn(Cc4ccccc4F)c4ncccc34)nc2NCC1 [Example 23, 2-[1-(2-Fluorobenzyl)-1H-pyrazolo[3,4-b]pyridin-3-yl]-6-methyl-8,9-dihydro-7H-pyrimido[4,5-b][1,4]diazepin-4-amine] |
| 800 nM | Nc1nc(-c2nn(Cc3ccccc3F)c3ncccc23)nc2[nH]c(=S)[nH]c12 [Example 28, 6-Amino-2-[1-(2-fluorobenzyl)-1H-pyrazolo[3,4-b]pyridin-3-yl]-7,9-dihydro-8H-purine-8-thione] |
| 31 nM | CSc1nc2c(N)nc(-c3nn(Cc4ccccc4F)c4ncccc34)nc2[nH]1 [Example 29, 2-[1-(2-Fluorobenzyl)-1H-pyrazolo[3,4-b]pyridin-3-yl]-8-(methylsulfanyl)-7H-purin-6-amine] |
| 83 nM | Nc1nc(-c2nn(Cc3ccccc3F)c3ncccc23)nc2[nH]c(=O)n(CC(F)(F)F)c12 [Example 44, 6-Amino-2-[1-(2-fluorobenzyl)-1H-pyrazolo[3,4-b]pyridin-3-yl]-7-(2,2,2-trifluoroethyl)-7,9-dihydro-8H-purin-8-one] |
| 41 nM | O=c1[nH]c2nc(-c3nn(Cc4ccccc4F)c4ncccc34)ncc2n1CC(F)(F)F [Example 45, 2-[1-(2-Fluorobenzyl)-1H-pyrazolo[3,4-b]pyridin-3-yl]-7-(2,2,2-trifluoroethyl)-7,9-dihydro-8H-purin-8-one] |
| 1390 nM | Nc1nc(-c2nn(Cc3ccccc3F)c3ncccc23)nc2[nH]c(=O)c(C(F)(F)F)nc12 [Example 50, 4-Amino-2-[1-(2-fluorobenzyl)-1H-pyrazolo[3,4-b]pyridin-3-yl]-6-(trifluoromethyl)pteridin-7(8H)-one] |
| 126 nM | Nc1nc(-c2nn(Cc3ccccc3F)c3ncccc23)nc2nccnc12 [Example 52, 2-[1-(2-Fluorobenzyl)-1H-pyrazolo[3,4-b]pyridin-3-yl]pteridin-4-amine] |
| 424 nM | Nc1nc(-c2nn(Cc3ccccc3F)c3ncccc23)nc2[nH]nnc12 [Example 53, 5-[1-(2-Fluorobenzyl)-1H-pyrazolo[3,4-b]pyridin-3-yl]-3H-[1,2,3]triazolo[4,5-d]pyrimidin-7-amine] |
| 39 nM | Nc1nc(-c2nn(Cc3ccccc3F)c3ncccc23)nc2nsnc12 [Example 57, 5-[1-(2-Fluorobenzyl)-1H-pyrazolo[3,4-b]pyridin-3-yl][1,2,5]thiadiazolo[3,4-d]pyrimidin-7-amine] |
| 199 nM | Nc1nc(-c2nn(Cc3ccccc3F)c3ncccc23)nc2ncn(CC(F)(F)F)c12 [Example 60, 2-[1-(2-Fluorobenzyl)-1H-pyrazolo[3,4-b]pyridin-3-yl]-7-(2,2,2-trifluoroethyl)-7H-purin-6-amine] |
| 759 nM | Nc1nc(-c2nn(Cc3ccccc3F)c3ncccc23)nc2nc(C(F)(F)F)n(CC(F)(F)F)c12 [Example 61, 2-[1-(2-Fluorobenzyl)-1H-pyrazolo[3,4-b]pyridin-3-yl]-7-(2,2,2-trifluoroethyl)-8-(trifluoromethyl)-7H-purin-6-amine] |
| 114 nM | Nc1nc(-c2nn(Cc3ccccc3F)c3ncc(F)cc23)nc2[nH]c(=O)n(CC(F)(F)F)c12 [Example 62, 6-Amino-2-[5-fluoro-1-(2-fluorobenzyl)-1H-pyrazolo[3,4-b]pyridin-3-yl]-7-(2,2,2-trifluoroethyl)-7,9-dihydro-8H-purin-8-one] |
| 27 nM | CC(C)c1nc2c(N)nc(-c3nn(Cc4ccccc4F)c4ncccc34)nc2[nH]c1=O [Example 83, 4-Amino-2-[1-(2-fluorobenzyl)-1H-pyrazolo[3,4-b]pyridin-3-yl]-6-isopropylpteridin-7(8H)-one] |
| 164 nM | Nc1nc(-c2nn(Cc3ccccc3F)c3ncccc23)nc2cccnc12 [Example 85, 2-[1-(2-Fluorobenzyl)-1H-pyrazolo[3,4-b]pyridin-3-yl]pyrido[3,2-d]pyrimidin-4-amine] |
